Results: patent US9359376B2, “Substituted methylformyl reagents and method of using same to modify physicochemical and/or pharmacokinetic properties of compounds” (priority 2011, dated 2016)
One block for each molecule: values may come before it.

Experiment: in vivo
Experimental: […] Blood was collected by serial bleeding at 0.16 h, 0.5 h, 1 h, 2 h, 4 h, 6 h, 8 h and 24 h in heparinized tubes. Blood samples were centrifuged at 10,000 rpm for 10 min. at 4° C. to obtain the plasma, which were aspirated into separate labeled tubes and stored at −80° C. 400 ng/ml of Verapmil in acetonitrile was used as the drug extraction solvent for extracting drug from plasma. Extraction solvent was added to plasma was vortexed and shaken on shaker for 10 minutes, centrifuged at 10000 rpm for 10 minutes at 4° C. Supernatant was kept for analysis.
Acetonitrile and plasma calibration curves were generated and percentage of drug recovery from plasma determined. Quantitative analysis was done by liquid chromatography tandem mass spectrometry using multiple reaction monitoring (API3000 LC-MS/MS). Cmax, Tmax, AUC and t1/2 were calculated using Graph Pad PRISM version 5.04.

- PK Value (AUC) (rat, in vivo): BDL
SMILES: CCc1c2c(nc3ccc(O)cc13)-c1cc3c(c(=O)n1C2)COC(=O)[C@]3(O)CC [Compound 4150, (S)-4,11-diethyl-4,9-dihydroxy-1H-pyrano[3′,4′:6,7]indolizino[1,2-b]quinoline-3,14(4H,12H)-dione]

SMILES: CCc1c2c(nc3ccc(OCOC(=O)c4cccnc4)cc13)-c1cc3c(c(=O)n1C2)COC(=O)[C@]3(O)CC [Compound 305, (S)-((4,11-diethyl-4-hydroxy-3,14-dioxo-3,4,12,14-tetrahydro-1H-pyrano[3′,4′:6,7]indolizino[1,2-b]quinolin-9-yl)oxy)methyl nicotinate]
- PK Value (AUC) (dosage 10.00 mpk, vehicle PEG400): BDL

SMILES: CCc1c2c(nc3ccc(OCOC(=O)c4ccc[n+](COC(=O)NC(C)C)c4)cc13)-c1cc3c(c(=O)n1C2)COC(=O)[C@]3(O)CC.[I-] [Compound 306, (S)-3-((((4,11-diethyl-4-hydroxy-3,14-dioxo-3,4,12,14-tetrahydro-1H-pyrano[3′,4′:6,7]indolizino[1,2-b]quinolin-9-yl)oxy)methoxy)carbonyl)-1-(((isopropylcarbamoyl)oxy)methyl)pyridin-1-ium iodide]
- PK Value (AUC) (dosage 3.00 mpk, vehicle PEG400): BDL

- AUC (female, Sprague Dawley, rat, plasma, po, 10 mg/kg): 0.186 µM·h
SMILES: CC(=O)O[C@H]1C(=O)[C@@]2(C)[C@H]([C@H](OC(=O)c3ccccc3)[C@@]3(O)CC1=C(C)[C@@H](OC(=O)[C@H](O)[C@@H](NC(=O)c1ccccc1)c1ccccc1)C3)[C@]1(OC(C)=O)CO[C@@H]1C[C@@H]2O [Compound 4114, (2α,4α,5β,7β,10β,13α)-4,10-bis(acetyloxy)-13-{[(2R,3S)-3-(benzoylamino)-2-hydroxy-3-phenylpropanoyl]oxy}-1,7-dihydroxy-9-oxo-5,20-epoxytax-11-en-2-yl benzoate]
